Series [1] is described as follows: LNP size and polydispersity, Zetasizer Ultra. The format is physicochemical. The method in brief: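 Lipids dissolved in ethanol were combined with mRNA solution at a 1:3 volume ratio on a NanoAssemblr Ignite at 9 mL/min total flow. Particles were dialyzed in Slide-A-Lyzer G2 cassettes (10 k MWCO) against 1×PBS, then overnight at 4° C., concentrated with Amicon Ultra filters (100 k MWCO), and measured for size and polydispersity on a Zetasizer Ultra.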

Series [2] can be described thus: mRNA encapsulation efficiency, Quant-iT RiboGreen RNA Assay. The format is physicochemical.
In a further series the test system is Balb/c mice. In words: EPO levels in plasma by EPO MSD kit after IV injection of EPO mRNA LNP. The format is in vivo.
The nature of series [3]: mRNA encapsulation efficiency, Quant-iT RiboGreen RNA Assay. The format is physicochemical. Conditions: LNP ionizable lipid:DSPC:Plant Chol.:DMPE-PEG2k 50:10:38.5:1.5.
Where [4] appears, read: Example 5 LNP lipid:DOPE:Plant Cholesterol:DMPE-PEG2k 35:16:46.5:2.5, FLUC/EPO 1:1 mRNA, N:P 6:1.
Where [5] appears, read: LNP ionizable lipid:DSPC:Plant Chol.:DMPE-PEG2k 50:10:38.5:1.5.
The mark [6] stands for this setting: Example 5 LNP (DOPE 35:16:46.5:2.5), 5 μg FLUC + 5 μg EPO.
Where [7] appears, read: LNP lipid:DSPC:Plant Chol.:DMPE-PEG2k 50:10:38.5:1.5, 5 ug Fluc+5 ug EPO mRNA.
Setting [8] is: LNP ionizable lipid:DOPE:Plant Chol.:DMPE-PEG2k 35:16:46.5:2.5 (Table 1).
Where [9] appears, read: LNP lipid:DOPE:Plant Chol.:DMPE-PEG2k 35:16:46.5:2.5 (Table 1), 5 ug Fluc+5 ug EPO mRNA.

Structures are written as SMILES.

`CCCCCCCCCCCOC(=O)CCCCCN(CCCCCCCC(=O)OC(CCCCCCCC)CCCCCCCC)CCNC(=O)CC(=O)NCCN(CCCCCCCC(=O)OC(CCCCCCCC)CCCCCCCC)CCCCCC(=O)OCCCCCCCCCCC` [Compound 2220, 1-octylnonyl 8-[2-[[3-[2-[[8-(1-octylnonoxy)-8-oxo-octyl]-(6-oxo-6-undecoxy-hexyl)amino]ethylamino]-3-oxo-propanoyl]amino]ethyl-(6-oxo-6-undecoxy-hexyl)amino]octanoate]: the values for the PDI in series [1] (setting [4]) and in series [1] (setting [5]) were 0.17 and 0.03, respectively. The “Size (nm)” value in series [1] (setting [4]) turned out to be 71.3 nm; in series [1] (setting [5]), 89.17 nm. Moreover, the results for the “% EE” value in series [2] (setting [4]) and in series [3] were 94.4% and 91%, respectively. For the same compound, the hEPO with Balb/c mice (setting [6]) is 7.1E+05; with Balb/c mice (setting [7]), 6.99E+05.

Regarding `CCCCCCCCCCCOC(=O)CCCCCN(CCCCCCCC(=O)OC(CCCCCCCC)CCCCCCCC)CCNC(=O)/C=C/C(=O)NCCN(CCCCCCCC(=O)OC(CCCCCCCC)CCCCCCCC)CCCCCC(=O)OCCCCCCCCCCC` [Compound 2252, 1-octylnonyl 8-[2-[[(E)-4-[2-[[8-(1-octylnonoxy)-8-oxo-octyl]-(6-oxo-6-undecoxy-hexyl)amino]ethylamino]-4-oxo-but-2enoyl]amino]ethyl-(6-oxo-6-undecoxy-hexyl)amino]octanoate], the PDI in series [1] (setting [4]) was 0.13; in series [1] (setting [8]), 0.13; in series [1] (setting [5]), 0.05. Further, the “Size (nm)” value is 70.0 nm in series [1] (setting [4]), 69.98 nm in series [1] (setting [8]) and 126.40 nm in series [1] (setting [5]). Moreover, the figures for the “% EE” value in series [2] (setting [4]), in series [2] (setting [8]) and in series [3] were 94.5%, 94.5% and 70.4%, respectively. Further, the figures for the hEPO with Balb/c mice (setting [6]), in the series with Balb/c mice (setting [9]) and in the series on Balb/c mice (setting [7]) were 5.6E+05, 5.62E+05 and 2.03E+04, respectively.

`C=C(CN(CCCCCCCC(=O)OC(CCCCCCCC)CCCCCCCC)CCCCCC(=O)OCCCCCCCCCCC)CN(CCCCCCCC(=O)OC(CCCCCCCC)CCCCCCCC)CCCCCC(=O)OCCCCCCCCCCC` [Compound 2253, 1-octylnonyl 8-[2-[[[8-(1-octylnonoxy)-8-oxo-octyl]-(6-oxo-6-undecoxy-hexyl)amino]methyl]allyl-(6-oxo-6-undecoxy-hexyl)amino]octanoate]: the PDI in series [1] (setting [4]) is given as 0.23; in series [1] (setting [8]), 0.23; in series [1] (setting [5]), 0.18. In addition, the results for the “Size (nm)” value in series [1] (setting [4]), in series [1] (setting [8]) and in series [1] (setting [5]) were 107.9 nm, 107.87 nm and 120.70 nm, respectively. Moreover, the entries for the “% EE” value in series [2] (setting [4]), in series [2] (setting [8]) and in series [3] were 82.7%, 82.7% and 27.3%, respectively. Further, the hEPO in the series with Balb/c mice (setting [6]) came out at 8.9E+01; with Balb/c mice (setting [9]), 8.89E+01; in the series on Balb/c mice (setting [7]) it was 8.89E+01.

The values above are taken from US20250051263A1, “NOVEL IONIZABLE LIPIDS AND LIPID NANOPARTICLES AND METHODS OF USING THE SAME” (Sail Biomedicines, Inc., priority 2021, published 2025).
